According to US20230000827A1, “INHIBITORS OF HSP70 PROTEIN” (INSERM (INSTITUTE NATIONAL DE LA SANTÉ ET DE LA RECHERCHE …, priority 2019, published 2023):

What was measured:
[1] = tested on: Human cervix cancer Hela cells; test: Chemo-sensitization to cisplatin, cell survival colorimetric assay, HeLa; format: cell-based; conditions: molecule 2 μM with cisplatin 25 μM, 48 h
Description: (§1) FIG. 3. The chemical molecule hits sensitize cancer cells to cisplatin. A) Human cervix HeLa or B) mouse colorectal cancer CT-26 cells were incubated during 48 h with cisplatin (25 μM) in the presence of absence of molecules A, B and C (2 μM). Cell survival was measured by a colorimetric assay staining.
(§2) 3.5×10^4 adherent cells were plated onto 24-well culture plates in complete medium. Cells were treated with small molecules at various concentrations (1 μM to 30 μM) for 4 hours to determine cellular IC50. Then, cells of half of each 24-well culture plates were treated with cisplatin (CDDP, 25 μM) for 48 hours. Cell death was measured by the crystal violet colorimetric assay staining.
(§3) To study the effect of the molecules in cancer cells, the inventors used two different cancer cells lines: Human cervix cancer Hela cells and mouse colorectal cancer CT-26. Cells were treated with the small molecule hit (2 μM) either alone or together with cisplatin for 48 hours and cell survival was determined. […] Cells seem to die mainly by apoptosis, as detected by the amount of Annexin V positive/propidium iodide negative cells obtained after treatment with the molecule (FIG. 5). The inventors conclude that the hit candidates block HSP70 chaperone activity and sensitize cancer cells to apoptosis induced by cisplatin.

HSP70/A18 interaction [2] = biological target: T1, HSP70/A18 interaction (Homo sapiens, UniProt P0DMV8); test: Ability to block HSP70/A18 interaction (Biacore); format: binding; conditions: block of HSP70/A18 interaction; read-out: Activity profil/50% effective concentration (EC50)
T1 construct: expressed in transfected cells
From the text: Table 2. Selected “Hits” with high inhibitory activity against A18 binding to HSP70. Their chemical structure is shown as well as their ability to block HSP70/A18 interaction (Biacore).

Solubility (statement) = format: physicochemical
HSP70/A18 interaction [3] = biological target: T1, HSP70/A18 interaction; test: AptaScreen high-throughput yeast two-hybrid dual luminescence screening of A18/HSP70 association; format: cell-based; conditions: for IC50: dose-response, inhibition of A18 binding to HSP70; for Confirmation inhibition: hit confirmation; for inhibition at 10 µM: molecules screened at 10 μM
Description: Table 1. High throughput screening of chemical agonists of the A18 peptide aptamer. The screening was based on the ability of the molecules to inhibit the association A18/HSP70.
A high-throughput screening assay, AptaScreen™ (developed by Aptanomics SA; (Baines I C et al. Drug Discov Today. 2006;11:334-341; Rerole A L, et al. Cancer Res 20119;71:484-495)) was performed by the Company Imaxio (Lyon, France) on a library of almost 60,000 small molecules. The AptaScreen™ assay is based on an automated dual luminescence (luc and ruc reporter genes) yeast two-hybrid assay, with HSP70 expressed as a ‘bait’ and A18 aptamer expressed as a ‘prey’. The HSP70/A18 interaction directs the transcription of the luc reporter gene, while in the same assay a control protein/aptamer couple directs the transcription of the ruc reporter. A small molecule can be considered as ‘hit candidate’ when it inhibits the interaction between HSP70 and A18 (i.e. decreases the luciferase signal), but not the control interaction (i.e. no or little change in the ruc signal). Molecules were screened at a concentration of 10 μM and then hit candidates were confirmed by dose-response assays, following the standard protocol (Rerole A L, et al. Cancer Res 20119;71:484-495).
A high-throughput screening assay, AptaScreen™ (developed by Aptanomics SA; ^22,23), was performed by the Company Imaxio (Lyon, France) on a library of almost 60,000 small molecules including most of the marketed drugs. The AptaScreen™ assay is based on an automated dual luminescence (luc and ruc reporter genes) yeast two-hybrid assay, with HSP70 expressed as a ‘bait’ and a peptide aptamer (A18), the inventors previously isolated that bound to the ATP domain of HSP70 expressed as a ‘prey’ (Rerole A L, et al. Cancer Res 20119;71:484-495). A small molecule can be considered as ‘hit candidate’ when it inhibits the interaction between HSP70 and A18 (i.e. decreases the luciferase signal). Molecules were screened at a concentration of 10 μM. Eight molecules (hit candidates) were initially identified. From the dose-response studies, three of them were retained on the basis of their specificity and high inhibitory activity against A18 binding to HSP70 (Table 1 and 2).

[4] = tested on: mouse colorectal cancer CT-26; test: Chemo-sensitization to cisplatin, cell survival colorimetric assay, CT-26; format: cell-based; conditions: CT-26, molecule 2 μM with cisplatin 25 μM, 48 h
Description: as §1, §2, §3

recombinant HSP70 = recombinant HSP70 (Homo sapiens, UniProt P0DMV8); test: HSP70 chaperone activity, protein thermolability (aggregation) assay; format: biochemical; conditions: 1 μM, heat shock 55° C., 1 h, recombinant HSP70 10 ng
Description: FIG. 2: Small molecules hits A, B and C inhibit HSP70 chaperone activity. A) Protein aggregation was determined in the presence or absence of recombinant HSP70 (10 ng). When indicated A18 or molecules A, B and C were added (1 μM). B) Protein aggregation was determined in the presence or absence of recombinant HSP70, HSC70 or HSP90 (10 ng).
When indicated A18 or molecules A, B and C were added (1 μM). A0, a non-relevant peptide aptamer was used here as a negative control. Values are normalized for each HSP. 100% chaperone effect being the inhibition of protein aggregation induced by addition of the recombinant chaperones.
HSP70 chaperone activity was evaluated with a protein thermolability assay. HSF1−/− MEFs extracts were incubated 20 minutes on ice in lysis buffer (50 mM HEPES, 150 mM NaCl, 5 mM EDTA, 0.1% NP40) supplemented with protease inhibitors (Roche, France). […]
Cellular extracts, to which recombinant HSP70, HSP90 or HSC70 were added with or without the small molecules to test, were diluted to a final concentration of 2 mg. mL-1 in pH 7 Tris-HCl buffer and heated at 55° C. during 1 hour. After g−16,000 centrifugation at 4° C. during 10 minutes, supernatant native protein quantity was determined by Lowry method (Dc Assay Kits, Bio-Rad). This final protein concentration was then compared to the initial protein concentration in supernatants to quantify denatured proteins. […]

T1 sequence (P0DMV8 whole entry): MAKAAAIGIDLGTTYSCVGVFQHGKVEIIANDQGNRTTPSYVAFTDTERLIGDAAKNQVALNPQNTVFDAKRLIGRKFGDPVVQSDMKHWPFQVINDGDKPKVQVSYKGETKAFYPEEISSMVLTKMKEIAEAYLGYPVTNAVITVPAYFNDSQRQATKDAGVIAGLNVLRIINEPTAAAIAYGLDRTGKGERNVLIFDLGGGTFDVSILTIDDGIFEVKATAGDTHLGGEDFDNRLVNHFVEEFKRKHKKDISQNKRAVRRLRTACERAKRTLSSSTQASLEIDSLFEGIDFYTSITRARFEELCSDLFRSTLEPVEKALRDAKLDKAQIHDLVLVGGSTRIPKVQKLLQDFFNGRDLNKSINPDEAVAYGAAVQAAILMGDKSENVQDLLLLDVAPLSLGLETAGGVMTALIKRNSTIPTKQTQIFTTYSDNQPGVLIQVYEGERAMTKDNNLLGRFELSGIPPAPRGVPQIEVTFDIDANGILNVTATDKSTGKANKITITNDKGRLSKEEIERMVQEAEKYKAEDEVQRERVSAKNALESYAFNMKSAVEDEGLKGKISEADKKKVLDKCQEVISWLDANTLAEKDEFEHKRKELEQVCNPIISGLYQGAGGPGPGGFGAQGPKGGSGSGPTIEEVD
Sequence of recombinant HSP70 (P0DMV8 whole entry): as above

In the case of CCOc1ccc(C)cc1S(=O)(=O)n1nnc2ccccc21 [Molecule B], the “Cell death induced by cisplatin” value [1] is reported as “most important effect”, the EC50 (HSP70/A18 interaction [2]) is reported as 0.2 µM and the Solubility (Solubility (statement)) is reported as “hardly soluble”. For the same compound, the HSP70 specificity (HSP70/A18 interaction [3]) was “YES”, the IC50 (HSP70/A18 interaction [3]) was 0.2 µM and the Confirmation inhibition (HSP70/A18 interaction [3]) was 59. The inhibition at 10 µM (HSP70/A18 interaction [3]) was 105%, the “Cell death induced by cisplatin” value [4] was “most important effect” and the “Inhibition of HSP70 chaperone activity” value (recombinant HSP70) was “much more important inhibition”.
With O=C1N=C(N2CCCCC2)S/C1=C\c1ccccc1F [Molecule A] the EC50 (HSP70/A18 interaction [2]) was 19.6 µM, the HSP70 specificity (HSP70/A18 interaction [3]) was “YES” and the IC50 (HSP70/A18 interaction [3]) was 19.6 µM. The Confirmation inhibition (HSP70/A18 interaction [3]) was 34, the inhibition at 10 µM (HSP70/A18 interaction [3]) was 105% and the “Inhibition of HSP70 chaperone activity” value (recombinant HSP70) was “only partially blocked”.
